Reference: ChEMBL document CHEMBL1201862, “PubChem BioAssay data set” (2004)
The source made the active and inactive calls.

What was measured:
[1] = target: Hepatocyte nuclear factor 4-alpha (Homo sapiens, UniProt P41235); format: functional, cell-based;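 note: biochemical luminescence-based dose-response counterscreen measuring inhibition of HNF4 dimerization, run alongside a screen for blockers of ABHD5–perilipin-5 interaction; split luciferase complementation of HNF4 fusion proteins in cell lysate measuring dimerization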
[2] = target: T1, Probable nicotinate-nucleotide adenylyltransferase (Staphylococcus aureus (strain N315), UniProt P65502); format: functional, Staphylococcus aureus subsp. aureus N315; conditions: read-out: IC50_Mean;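 for IC50 Mean: confirmatory dose-response retesting of NadD inhibitor hits first found in an ultra-high-throughput screen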
T1 sequence (P65502 whole entry): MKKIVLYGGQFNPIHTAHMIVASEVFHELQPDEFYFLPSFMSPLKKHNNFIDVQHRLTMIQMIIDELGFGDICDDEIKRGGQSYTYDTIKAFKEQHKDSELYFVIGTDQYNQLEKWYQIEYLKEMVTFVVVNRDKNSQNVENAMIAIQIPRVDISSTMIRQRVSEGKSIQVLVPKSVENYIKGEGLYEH

[3] = target: T1, Probable nicotinate-nucleotide adenylyltransferase; format: functional, Staphylococcus aureus subsp. aureus N315
[4] = target: Photoreceptor-specific nuclear receptor (Homo sapiens, UniProt Q9Y5X4); format: functional, cell-based;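 note: CHO-S cells with Gal4-NCOR and VP16-NR2E3 two-hybrid luciferase reporter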
Chain of Photoreceptor-specific nuclear receptor (Q9Y5X4 whole entry, the tested form may be a part): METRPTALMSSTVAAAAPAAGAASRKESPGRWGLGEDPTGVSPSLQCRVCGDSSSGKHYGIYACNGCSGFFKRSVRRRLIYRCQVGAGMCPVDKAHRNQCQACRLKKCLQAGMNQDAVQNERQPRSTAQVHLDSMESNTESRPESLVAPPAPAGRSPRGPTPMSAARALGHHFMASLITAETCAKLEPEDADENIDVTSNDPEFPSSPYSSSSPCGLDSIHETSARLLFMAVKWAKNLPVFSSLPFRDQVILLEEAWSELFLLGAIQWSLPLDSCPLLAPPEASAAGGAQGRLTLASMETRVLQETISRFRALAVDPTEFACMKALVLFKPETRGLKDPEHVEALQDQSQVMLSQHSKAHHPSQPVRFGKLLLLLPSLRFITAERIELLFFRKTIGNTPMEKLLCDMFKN

[5] = target: Mitogen-activated protein kinase 10 (Homo sapiens, UniProt P53779); experiment: Dose response biochemical screening assay for inhibitors of c-Jun N-Terminal Kinase 3 (JNK3). [Related pubchem assays: 746 ]
[6] = target: Peroxisome proliferator-activated receptor gamma/Nuclear receptor coactivator 3 (Homo sapiens, UniProt P37231); experiment: TR-FRET dose response biochemical High Throughput Screening assay for agonists of the steroid receptor coactivator 3 (SRC-3) recruitment by the peroxisome proliferator-activated receptor gamma (PPAR gamma): non-selective agonists. [Related pubchem assays: 1301 (Confirmation screen.), 1048 (Primary screen.)]; format: functional
[7] = Luminescence Cell-Based Dose Retest to Confirm Inhibitors of Cancer Stem Cells. [Related pubchem assays (depositor defined):AID2717, AID2721]; format: functional; conditions: Homo sapiens
[8] = target: Peroxisome proliferator-activated receptor gamma/Nuclear receptor coactivator 2 (Homo sapiens, UniProt P37231); experiment: (§1) TR-FRET dose response biochemical High Throughput Screening assay for agonists of the steroid receptor coactivator 2 (SRC-2) recruitment by the peroxisome proliferator-activated receptor gamma (PPAR gamma): non-selective agonists. [Related pubchem assays: 1297, 1032 ]; format: functional
[9] = target: Peroxisome proliferator-activated receptor gamma/Nuclear receptor coactivator 1 (Homo sapiens, UniProt P37231); experiment: as §1, with “1 (SRC-1)” for “2 (SRC-2)”, “assays (depositor defined):AID1300, AID1808, AID504735, AID631]” for “assays: 1297, 1032 ]”; format: protein assay
[10] = target: Low molecular weight phosphotyrosine protein phosphatase (Homo sapiens, UniProt P24666); format: functional; conditions: read-out: IC50_Mean;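 note: Dose-response confirmation assay measuring inhibition of LMPTP enzyme activity by fluorescence intensity read-out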
Chain of Low molecular weight phosphotyrosine protein phosphatase (P24666 whole entry): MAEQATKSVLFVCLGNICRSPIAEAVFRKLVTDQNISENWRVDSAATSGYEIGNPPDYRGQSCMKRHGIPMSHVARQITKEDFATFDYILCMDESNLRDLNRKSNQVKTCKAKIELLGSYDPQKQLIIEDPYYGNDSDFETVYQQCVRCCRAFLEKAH

[11] = target: Mitochondrial peptide methionine sulfoxide reductase (Bos taurus, UniProt P54149); format: functional;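 note: absorbance read-out, biochemical high-throughput dose-response screen for MsrA inhibitors, confirmatory; recombinant bovine MsrA coupled to E. coli TrxB with NADPH and selenocystamine; potency is for inhibitors of MsrA activity on DMSO substrate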
Chain of Mitochondrial peptide methionine sulfoxide reductase (P54149 whole entry): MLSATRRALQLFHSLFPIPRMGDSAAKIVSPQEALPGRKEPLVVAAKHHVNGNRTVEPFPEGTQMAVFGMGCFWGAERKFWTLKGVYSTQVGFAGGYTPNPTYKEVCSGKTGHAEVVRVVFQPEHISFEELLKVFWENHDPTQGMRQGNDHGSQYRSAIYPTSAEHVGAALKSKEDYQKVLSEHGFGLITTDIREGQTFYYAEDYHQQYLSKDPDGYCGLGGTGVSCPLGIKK

[12] = target: ADP-ribosylation factor GTPase-activating protein 1 (Rattus norvegicus, UniProt Q62848); experiment: Fluorescence polarization-based biochemical high throughput dose response screening assay to identify inhibitors of ADP-ribosylation factor GTPase activating protein 1 (ARFGAP1).; format: functional
Chain of ADP-ribosylation factor GTPase-activating protein 1 (Q62848 whole entry): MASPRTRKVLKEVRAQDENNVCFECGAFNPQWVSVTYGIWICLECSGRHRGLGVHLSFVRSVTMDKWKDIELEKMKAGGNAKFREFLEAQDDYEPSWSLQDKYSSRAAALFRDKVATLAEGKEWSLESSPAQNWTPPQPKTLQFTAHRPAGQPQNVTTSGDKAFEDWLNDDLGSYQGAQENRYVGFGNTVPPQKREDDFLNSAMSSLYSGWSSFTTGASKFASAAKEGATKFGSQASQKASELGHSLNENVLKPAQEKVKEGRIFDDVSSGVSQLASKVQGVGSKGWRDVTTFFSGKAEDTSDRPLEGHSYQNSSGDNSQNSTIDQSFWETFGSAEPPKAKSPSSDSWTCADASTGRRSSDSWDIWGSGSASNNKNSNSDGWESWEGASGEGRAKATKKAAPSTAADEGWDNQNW

Orexin receptor type 2 [13] = target: T2, Orexin receptor type 2 (Homo sapiens, UniProt O43614); experiment: Counterscreen assay for antagonists of the orexin 1 receptor (OX1R; HCRTR1): Fluorescence-based cell-based dose response assay for antagonists of the orexin 2 receptor (OX2R; HCRTR2), run by assay provider.; format: functional
T2 sequence (O43614 whole entry): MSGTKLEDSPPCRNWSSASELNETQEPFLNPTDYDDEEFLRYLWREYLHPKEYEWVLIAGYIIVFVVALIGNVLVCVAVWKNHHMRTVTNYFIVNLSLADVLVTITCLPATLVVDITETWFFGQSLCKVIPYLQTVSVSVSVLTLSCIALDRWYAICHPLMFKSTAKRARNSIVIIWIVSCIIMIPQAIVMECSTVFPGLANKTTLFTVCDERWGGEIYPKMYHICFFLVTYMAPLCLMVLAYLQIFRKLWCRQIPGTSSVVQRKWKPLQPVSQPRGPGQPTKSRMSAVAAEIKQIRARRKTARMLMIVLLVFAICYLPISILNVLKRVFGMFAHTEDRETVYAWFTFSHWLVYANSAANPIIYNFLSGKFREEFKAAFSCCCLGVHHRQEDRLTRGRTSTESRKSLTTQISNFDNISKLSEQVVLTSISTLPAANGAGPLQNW

Orexin receptor type 2 [14] = target: T2, Orexin receptor type 2; experiment: Counterscreen assay for antagonists of the orexin 1 receptor (OX1R; HCRTR1): Homogeneous Time Resolved Fluorescence (HTRF)-based cell-based dose response assay for antagonists of the orexin 2 receptor (OX2R; HCRTR2), run by assay provider.; format: functional
[15] = target: T3, Orexin/Hypocretin receptor type 1 (Homo sapiens, UniProt O43613); experiment: Homogeneous Time Resolved Fluorescence (HTRF)-based cell-based high throughput dose response assay for antagonists of the orexin 1 receptor (OX1R; HCRTR1). [Related pubchem assays (depositor defined):AID434989, AID435008, AID463079, AID485270, AID492963, AID492964, AID492965, AID493232, AID504717, AID504718]; format: functional
T3 sequence (O43613 whole entry): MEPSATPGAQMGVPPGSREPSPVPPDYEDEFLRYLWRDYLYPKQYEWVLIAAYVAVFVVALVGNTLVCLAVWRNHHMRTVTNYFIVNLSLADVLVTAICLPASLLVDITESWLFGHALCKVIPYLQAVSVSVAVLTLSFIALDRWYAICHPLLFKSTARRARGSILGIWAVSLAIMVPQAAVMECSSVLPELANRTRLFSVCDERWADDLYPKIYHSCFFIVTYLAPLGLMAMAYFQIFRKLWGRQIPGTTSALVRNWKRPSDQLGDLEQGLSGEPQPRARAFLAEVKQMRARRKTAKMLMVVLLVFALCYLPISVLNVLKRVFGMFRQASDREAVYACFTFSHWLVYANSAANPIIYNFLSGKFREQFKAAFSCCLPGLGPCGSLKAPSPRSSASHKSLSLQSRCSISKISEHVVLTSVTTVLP

[16] = viability of uninfected HEp-2 cells – cell-based, HTS, cytotoxicity control for RSV inhibitor project, dose response (AID 2410); format: functional; conditions: human respiratory syncytial virus
[17] = (§2) Counterscreen for antagonists of the orexin 1 receptor (OX1R; HCRTR1): Fluorescence-based cell-based high throughput dose response assay to identify antagonists of the parental CHO cell line. [Related pubchem assays (depositor defined):AID434989, AID435008, AID463079, AID485270, AID492963, AID492964, AID492965, AID493232, AID504699, AID504701]; format: functional
[18] = target: T3, Orexin/Hypocretin receptor type 1; experiment: Fluorescence-based cell-based high throughput dose response assay for antagonists of the orexin 1 receptor (OX1R; HCRTR1). [Related pubchem assays (depositor defined):AID434989, AID435008, AID463079, AID485270, AID492963, AID492964, AID492965, AID493232, AID504717, AID504718]; format: functional
CHO-K1 = experiment: as §2, with “Homogeneous time resolved fluorescence (HTRF)-based” for “Fluorescence-based”, “cell-based” for “cell-based high throughput”, “CHO-K1” for “CHO”; format: functional; conditions: Cricetulus griseus;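 note: potency for inhibition of ATP-stimulated IP1 production as antagonists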
[19] = target: T4, Heat shock factor protein 1 (Mus musculus, UniProt P38532); experiment: decrease of HSF1-responsive luciferase luminescence – cell-based, NIH3T3, dose retest, confirmation (AID 2382); format: functional;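 note: NIH3T3 fibroblasts with HSF1-driven luciferase reporter stressed by proteasome inhibitor MG132; luminescence from HSF1-driven luciferase expression after 8 hours of MG132 stress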
T4 sequence (P38532 whole entry): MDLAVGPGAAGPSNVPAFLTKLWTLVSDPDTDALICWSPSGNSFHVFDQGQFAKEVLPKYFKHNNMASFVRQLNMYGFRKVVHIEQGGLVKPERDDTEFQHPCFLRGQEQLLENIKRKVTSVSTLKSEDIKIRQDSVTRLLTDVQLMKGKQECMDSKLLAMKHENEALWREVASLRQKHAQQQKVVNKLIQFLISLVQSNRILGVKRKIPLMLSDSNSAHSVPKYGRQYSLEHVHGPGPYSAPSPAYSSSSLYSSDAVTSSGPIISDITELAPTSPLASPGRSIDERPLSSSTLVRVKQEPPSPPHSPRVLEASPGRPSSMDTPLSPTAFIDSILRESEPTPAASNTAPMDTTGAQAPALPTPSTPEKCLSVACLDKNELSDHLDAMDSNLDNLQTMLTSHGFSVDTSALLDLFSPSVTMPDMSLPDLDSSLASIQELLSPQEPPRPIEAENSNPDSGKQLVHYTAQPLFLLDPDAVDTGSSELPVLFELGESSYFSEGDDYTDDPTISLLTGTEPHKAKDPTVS

Steroidogenic factor 1 = Steroidogenic factor 1 (Homo sapiens, UniProt Q13285); experiment: Counterscreen for inverse agonists of the liver receptor homolog-1 (LRH-1; NR5A2): Luminescence-based cell-based high throughput dose response assay to identify inverse agonists of the Steroidogenic Factor 1 Nuclear Receptor (SF1; NR5A1).; format: functional
Chain of Steroidogenic factor 1 (Q13285 whole entry): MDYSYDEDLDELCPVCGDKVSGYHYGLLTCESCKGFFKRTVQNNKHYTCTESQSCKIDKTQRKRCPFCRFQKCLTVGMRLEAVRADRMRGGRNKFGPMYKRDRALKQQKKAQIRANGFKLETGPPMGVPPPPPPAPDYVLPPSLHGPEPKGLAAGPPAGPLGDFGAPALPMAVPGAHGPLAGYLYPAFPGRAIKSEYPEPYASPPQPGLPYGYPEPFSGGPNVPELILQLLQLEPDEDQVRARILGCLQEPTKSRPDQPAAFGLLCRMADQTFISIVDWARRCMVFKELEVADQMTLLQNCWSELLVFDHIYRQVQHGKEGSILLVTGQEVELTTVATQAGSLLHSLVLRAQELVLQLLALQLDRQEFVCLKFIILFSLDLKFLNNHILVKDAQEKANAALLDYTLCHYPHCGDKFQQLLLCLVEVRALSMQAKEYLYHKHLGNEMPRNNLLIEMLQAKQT

[20] = target: Nuclear receptor subfamily 5 group A member 2 (Homo sapiens, UniProt O00482); format: functional, cell-based;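 note: HEK293T cells transfected with LRH-1 and a StAR promoter luciferase reporter; potency for inhibitors that lower LRH-1 driven reporter light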
Chain of Nuclear receptor subfamily 5 group A member 2 (O00482 whole entry): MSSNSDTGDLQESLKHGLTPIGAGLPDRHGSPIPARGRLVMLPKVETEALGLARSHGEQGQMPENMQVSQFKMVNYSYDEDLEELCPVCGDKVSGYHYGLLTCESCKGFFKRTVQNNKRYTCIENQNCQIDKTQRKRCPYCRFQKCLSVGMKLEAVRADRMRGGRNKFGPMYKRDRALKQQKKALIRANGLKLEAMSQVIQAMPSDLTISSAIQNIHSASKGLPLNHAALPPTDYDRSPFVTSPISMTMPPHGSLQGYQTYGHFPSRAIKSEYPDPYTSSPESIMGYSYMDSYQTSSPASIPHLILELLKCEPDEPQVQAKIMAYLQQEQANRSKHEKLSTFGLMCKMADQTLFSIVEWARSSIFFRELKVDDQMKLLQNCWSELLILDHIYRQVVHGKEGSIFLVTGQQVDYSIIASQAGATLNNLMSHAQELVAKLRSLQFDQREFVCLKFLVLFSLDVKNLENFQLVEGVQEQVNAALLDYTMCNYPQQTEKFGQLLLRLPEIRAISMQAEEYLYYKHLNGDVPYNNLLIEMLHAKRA

[21] = nonselective StAR promoter luciferase inhibitors – cell-based, luminescence, luciferase reporter, counter-screen for LRH-1 inverse agonist project, dose response (AID 651969); format: functional
[22] = target: Ras and Rab interactor 1/Tyrosine-protein kinase ABL1 (Homo sapiens, UniProt P00519+Q13671); format: functional;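 note: biochemical TR-FRET dose-response test measuring inhibition of binding between Rin1 and Abl proteins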
Chain of Ras and Rab interactor 1/Tyrosine-protein kinase ABL1 (P00519 whole entry): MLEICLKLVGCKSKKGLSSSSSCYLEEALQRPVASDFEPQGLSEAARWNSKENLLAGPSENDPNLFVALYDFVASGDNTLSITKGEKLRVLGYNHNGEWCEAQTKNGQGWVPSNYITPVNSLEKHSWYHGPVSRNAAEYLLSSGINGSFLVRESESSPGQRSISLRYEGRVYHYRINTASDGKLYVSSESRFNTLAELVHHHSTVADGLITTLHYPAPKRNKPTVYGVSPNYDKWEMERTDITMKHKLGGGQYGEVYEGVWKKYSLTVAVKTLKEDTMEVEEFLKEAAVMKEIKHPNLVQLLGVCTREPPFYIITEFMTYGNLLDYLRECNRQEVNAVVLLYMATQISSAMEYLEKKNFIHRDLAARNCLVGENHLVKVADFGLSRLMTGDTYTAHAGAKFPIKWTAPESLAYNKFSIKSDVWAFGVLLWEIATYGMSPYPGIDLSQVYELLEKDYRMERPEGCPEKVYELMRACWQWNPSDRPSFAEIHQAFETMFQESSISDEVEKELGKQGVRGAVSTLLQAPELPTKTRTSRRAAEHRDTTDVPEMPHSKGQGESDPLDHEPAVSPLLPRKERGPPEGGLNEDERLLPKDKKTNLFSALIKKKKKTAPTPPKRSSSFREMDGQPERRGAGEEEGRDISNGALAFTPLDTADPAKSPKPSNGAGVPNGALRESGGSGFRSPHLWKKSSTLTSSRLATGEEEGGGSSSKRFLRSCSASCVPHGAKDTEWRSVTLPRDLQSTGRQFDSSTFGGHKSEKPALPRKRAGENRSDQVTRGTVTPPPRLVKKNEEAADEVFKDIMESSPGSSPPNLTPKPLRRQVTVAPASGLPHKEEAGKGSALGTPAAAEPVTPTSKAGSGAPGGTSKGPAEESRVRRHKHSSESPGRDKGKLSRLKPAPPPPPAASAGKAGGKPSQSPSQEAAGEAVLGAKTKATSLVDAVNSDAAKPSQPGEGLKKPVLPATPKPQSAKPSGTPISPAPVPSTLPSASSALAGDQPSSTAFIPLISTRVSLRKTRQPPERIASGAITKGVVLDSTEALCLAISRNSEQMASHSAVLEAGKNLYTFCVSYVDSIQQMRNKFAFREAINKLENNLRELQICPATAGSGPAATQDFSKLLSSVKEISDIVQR
Chain of Ras and Rab interactor 1/Tyrosine-protein kinase ABL1 (Q13671 whole entry): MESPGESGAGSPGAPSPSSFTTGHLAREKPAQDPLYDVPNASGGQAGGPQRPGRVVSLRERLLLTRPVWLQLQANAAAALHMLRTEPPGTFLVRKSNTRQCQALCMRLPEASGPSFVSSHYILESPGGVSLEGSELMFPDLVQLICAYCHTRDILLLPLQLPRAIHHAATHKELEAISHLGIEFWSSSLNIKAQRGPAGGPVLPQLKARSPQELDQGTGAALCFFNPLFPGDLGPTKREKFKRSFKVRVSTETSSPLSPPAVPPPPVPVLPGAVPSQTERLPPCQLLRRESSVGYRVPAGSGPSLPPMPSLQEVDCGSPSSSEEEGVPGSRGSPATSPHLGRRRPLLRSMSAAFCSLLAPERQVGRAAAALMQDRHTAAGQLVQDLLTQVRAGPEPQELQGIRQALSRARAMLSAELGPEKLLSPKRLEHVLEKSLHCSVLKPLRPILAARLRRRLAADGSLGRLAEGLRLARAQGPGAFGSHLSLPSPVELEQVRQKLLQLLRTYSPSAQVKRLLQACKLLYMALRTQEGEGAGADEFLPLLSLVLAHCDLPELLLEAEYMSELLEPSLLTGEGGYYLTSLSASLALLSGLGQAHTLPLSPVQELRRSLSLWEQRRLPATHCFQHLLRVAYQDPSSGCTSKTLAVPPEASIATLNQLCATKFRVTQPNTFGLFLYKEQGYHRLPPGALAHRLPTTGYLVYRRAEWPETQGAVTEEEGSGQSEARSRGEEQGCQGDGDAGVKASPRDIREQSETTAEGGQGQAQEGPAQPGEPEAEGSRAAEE

Protein Wnt-3a = Protein Wnt-3a (Mus musculus, UniProt P27467); experiment: antagonism of Wnt3a pathway luciferase reporter – Wnt-LIGHT cells, luminescence, selectivity assay for Gli-SUFU antagonist project, dose response (AID 651570); format: functional; conditions: read-out: IC50_Mean;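 note: Wnt-LIGHT reporter cells stimulated with conditioned medium from Wnt3a-producing cells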
Chain of Protein Wnt-3a (P27467 whole entry): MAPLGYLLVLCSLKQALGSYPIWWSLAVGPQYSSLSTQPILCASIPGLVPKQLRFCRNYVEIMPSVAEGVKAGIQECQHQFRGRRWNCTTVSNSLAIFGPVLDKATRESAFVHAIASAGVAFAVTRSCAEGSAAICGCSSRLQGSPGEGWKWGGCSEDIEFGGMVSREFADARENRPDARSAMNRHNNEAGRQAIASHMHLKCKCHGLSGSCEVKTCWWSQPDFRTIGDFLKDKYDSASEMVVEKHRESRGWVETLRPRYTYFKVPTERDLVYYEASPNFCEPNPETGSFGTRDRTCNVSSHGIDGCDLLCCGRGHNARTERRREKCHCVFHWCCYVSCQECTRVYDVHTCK

[23] = reduction of Shn3 3'UTR-driven luciferase in osteoblasts – cell-based, Clone20 osteoblasts, firefly luciferase, cherry-picked, dose response (AID 624132); format: functional;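 note: firefly luciferase luminescence from reporter carrying the Shn3 3'UTR in osteoblasts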
[24] = loss of viability in HepG2 cells – cell-based, CellTiter-Glo, cherry-picked, cytotoxicity control for Shn3 inhibitor project, dose response (AID 624134); format: functional
INS1 = experiment: INS-1E survival protection against cytokine death – cell-based, luminescence, retest, dose response (AID 449756); format: functional; conditions: Rattus norvegicus;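 note: cell death triggered by IL-1 beta plus TNF-alpha plus IFN-gamma mixture; protective hits raise ATP signal compared with cytokine alone wells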
[25] = NIH3T3 cell viability loss – ATP luminescence, mouse fibroblasts, counter-screen, dose response (AID 2010); format: functional, cell-based;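 note: cells exposed to compound for about 90 hours before reading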
[26] = Trypanosoma cruzi growth suppression in host cells – NIH3T3 host cells, beta-gal luminescence, confirmation (AID 2044); format: functional, cell-based;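 note: intracellular parasites grown in NIH/3T3 mouse fibroblasts as host cells; luminescent beta-galactosidase reporter signal from transgenic T. cruzi replicating inside host cells; inhibitors lower the luminescence signal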
Cytochrome P450 2C9 = Cytochrome P450 2C9 (Homo sapiens, UniProt P11712)

COc1ccc(NC(=O)C(c2ccc(OC)cc2)n2c(=O)c(-c3ccco3)nc3ccccc32)cc1 (stereo not given)
IC50 [1]: 15.7 µM (inactive)

COc1ccc(OC)c(/C=C/C(=O)OCC(=O)Nc2nnc(-c3ccccc3)o2)c1
IC50 [2]: 42.5 µM (active) | IC50 [3]: 9.28 µM (active)

Cc1ccnc(NC(=O)CSc2cc(=O)n(C)c3ccccc23)c1
IC50 [4]: 0.664 µM (active) | IC50 [5]: > 93.1 µM (not active) | EC50 [6]: > 79.4 µM (not active) | AC50 [7]: 1.03 µM (active) | EC50 [8]: > 79.4 µM (not active) | EC50 [9]: > 79.4 µM (inactive)

Cc1csc2nc(O)c(C(=O)NCc3ccc4c(c3)OCO4)c(=O)n12
IC50 [10]: 80 µM (inactive)

O=C(O)CC1SC(N/N=C/C=C/c2ccccc2)=NC1=O (stereo not given)
IC50 [11]: 118 µM (inactive)

NC(=O)c1ccc(NC(=O)COC(=O)/C=C/c2cn(-c3ccccc3)nc2-c2cccnc2)cc1
IC50 [12]: 57.4 µM (inactive)

CNC(=O)NC(=O)C(C)OC(=O)c1c2c(nc3ccccc13)/C(=C/c1cccs1)CC2 (stereo not given)
IC50 (Orexin receptor type 2 [13]): 8.7 µM (active) | IC50 (Orexin receptor type 2 [14]): > 50 µM (inactive) | IC50 [15]: 4.12 µM (active) | AC50 [7]: 2.41 µM (active) | CC50 [16]: > 50 µM (active) | IC50 [17]: > 49.7 µM (inactive) | IC50 [18]: 5.01 µM (active) | IC50 (CHO-K1): > 66.2 µM (inactive)

CC(/C=C/c1ccc2c(c1)OCO2)=N/NC(=O)c1ccncc1
EC50 [19]: 35.5 µM (active) | IC50 [11]: 51.7 µM (inactive)

COc1ccc(NC(=O)CSc2nc(O)c3c(C)cc(C)nc3n2)cc1
IC50 (Steroidogenic factor 1): 1.3 µM (active) | IC50 [20]: 1.37 µM (active) | IC50 [21]: 23.7 µM (inactive)

CN(Cc1cnccn1)C(=O)C1CCC(=O)N(CCc2ccccc2)C1 (stereo not given)
IC50 [22]: 17.5 µM (inactive)

COc1ccc(NS(=O)(=O)c2ccc(N3CCOCC3)c(N)c2)cc1
IC50 (Protein Wnt-3a): 1.16 µM (active) | AC50 [23]: 1.08 µM (active) | AC50 [24]: 3.99 µM (active) | AC50 (INS1): 2.94 µM (active)

CCOc1ccc2oc(C(=O)OCC(=O)N3CCCC(C)C3)c(C)c2c1 (stereo not given)
IC50 [12]: 69.8 µM (inactive)

O=C(Nc1ccccc1)[C@@H]1CC=C[C@@H]2CCN(Cc3ccc(Cl)c(Cl)c3)C(=O)[C@@H]21
IC50 (Orexin receptor type 2 [13]): > 88.8 µM (inactive) | IC50 (Orexin receptor type 2 [14]): > 50 µM (inactive) | IC50 [15]: 0.484 µM (active) | IC50 [17]: > 49.7 µM (inactive) | IC50 [18]: 4.28 µM (active) | IC50 (CHO-K1): > 66.2 µM (inactive)

CCOC(=O)CCCCCC(=O)Nc1ccc2c(c1)C(=O)N([C@@H](C)CO)C[C@@H](C)[C@H](CN(C)C(=O)Nc1ccccc1)OCCCC[C@H](C)O2
IC50 [22]: 17.3 µM (inactive)

O=C(N/N=C/c1ccc(Br)s1)c1ccc([N+](=O)[O-])cc1
EC50 [25]: 8.96 µM (active) | IC50 [10]: 9.73 µM (active) | EC50 [26]: 3.76 µM (active)

CCOC(=O)c1sc2nc(CC(=O)OC)nc(NCc3ccc(Cl)cc3)c2c1C
IC50 (Protein Wnt-3a): 3.96 µM (active)

COc1ccc(/C=C/c2nc(N)nc(-c3ccccc3O)n2)cc1OC
IC50 (Orexin receptor type 2 [13]): 26.9 µM (inactive) | IC50 (Orexin receptor type 2 [14]): > 50 µM (inactive) | IC50 [15]: 2.69 µM (active) | EC50 [25]: > 60 µM (inconclusive) | CC50 [16]: > 50 µM (active) | IC50 [17]: > 49.8 µM (inactive) | IC50 [18]: 3.97 µM (active) | EC50 [26]: 2.09 µM (active) | IC50 (CHO-K1): > 66.3 µM (inactive)

COc1ccc(NC(=O)COC(=O)c2c(-c3ccccc3)noc2C)cc1
IC50 (Steroidogenic factor 1): 1.43 µM (active) | IC50 [20]: 5.15 µM (active) | AC50 (Cytochrome P450 2C9): 20 µM (inconclusive) | IC50 [21]: 35.9 µM (inactive)
